Measured values as given in patent US7906486B2, “Method of treating or preventing tissue deterioration, injury or damage due to disease of mucosa” (SciClone Pharmaceuticals, Inc., priority 2007, dated 2011).
Several values for one entry are separate records, joined by “and”; a condition that tells them apart may be missing. Equal entries are not always repeated.

Legend:
[1] = Weights and survival (Example 3, SCI-03); type: in vivo, Syrian Golden Hamsters
Protocol: All animals were weighed daily and their survival recorded, in order to assess possible differences in animal weight among treatment groups as an indication for mucositis severity and/or possible toxicity resulting from the treatments.
There were no significant differences in weight changes between study groups. The mean daily percent weight change data was evaluated. The saline treated control hamsters gained an average of 76.3% of their starting weight during the study. Hamsters in the group receiving SCV-07 at 100 μg/kg on days −1 to 29 gained an average of 80.7% of their starting weight during the study. Hamsters in the group receiving SCV-07 at 100 μg/kg on days of radiation only gained an average of 66.3% of their starting weight during the study. Hamsters in the group receiving SCV-07 at 100 μg/kg on day −1, day 4, day 5 and days 10-29 gained an average of 69.7% of their starting weight during the study. The significance of these differences was evaluated by calculating the area-under-the-curve (AUC) for the weight gain of each animal, and then comparing the different treatment groups using a One-Way ANOVA test.

[2] = test system: thymocyte and lymphocyte; conditions: in vitro; cited from earlier work
[3] = test system: oral mucositis induced by acute radiation (40 Gy, left buccal cheek pouch); assay: Oral mucositis induced by acute radiation in hamsters, mucositis scoring (Example 1, SCI-01); type: in vivo, Syrian Golden Hamsters; set-up: key to peak mean mucositis score: 0 = normal, 5 = severe ulceration; conditions: for Days <3: animal days with mucositis score below three; for % Days >=3 / Days >=3: animal days with mucositis score of three or more; for Chi Sq v control: days with score >=3
Text: The acute radiation model in hamsters has proven to be an accurate, efficient and cost-effective technique to provide a preliminary evaluation of anti-mucositis compounds. The course of mucositis in this model is well defined and results in peak scores approximately 14-16 Days following radiation. The acute model has little systemic toxicity, resulting in few hamster deaths, thus permitting the use of smaller groups (N=7-8) for initial efficacy studies. It has also been used to study specific mechanistic elements in the pathogenesis of mucositis. Molecules that show efficacy in the acute radiation model may be further evaluated in the more complex models of fractionated radiation, chemotherapy, or concomitant therapy.
In this study, an acute radiation dose of 40 Gy on day 0 was administered. Clinically significant mucositis was observed on days 12 through 28.
Thirty-two (32) Syrian Golden Hamsters were given an acute radiation dose of 40 Gy directed to their left buccal cheek pouch on day 0. Test materials were given by sub-cutaneous injection once daily. Dosing began one day before radiation (day −1) and continued until day 16. Mucositis was evaluated clinically starting on day 6, and continuing on alternate days until day 28.
The grade of mucositis was scored, beginning day 6, and for every second day thereafter, through and including day 28. The effect on mucositis of each drug treatment compared to placebo was assessed according to the following parameters:
The difference in the number of days hamsters in each group have ulcerative (score ≧3) mucositis.
On each evaluation day, the number of animals with a blinded mucositis score of 3 in each drug treatment group was compared to the control group. Differences were compared on a cumulative basis and statistical significance was determined by chi-square analysis. Efficacy, in this analysis, is defined by a significant reduction in the number of days that a group of animals had ulcerations (scores 3) when compared to the control group.
For each evaluation day the scores of the control group were compared to those of the treated groups using non-parametric rank sum analysis. Treatment success was considered as a statistically significant lowering of scores in the treated group on 2 or more days from day 6 to day 28.
Thirty-two Syrian Golden Hamsters were divided into four (4) groups of eight (8) animals each. All animals received a single dose of acute radiation of 40 Gy directed to their left buccal cheek pouch on day 0. This was accomplished by anesthetizing the animals and everting the left buccal pouch, while protecting the rest of the animals with a lead shield. Test materials were given by sub-cutaneous injection once daily as detailed in Table 1. Mucositis was evaluated clinically starting on Day 6, and continuing on alternate days until day 28.
Mucositis was induced using a standardized acute radiation protocol. A single dose of radiation (40 Gy/dose) was administered to all animals on day 0. Radiation was generated with a 160 kilovolt potential (15-ma) source at a focal distance of 30 cm, hardened with a 0.35 mm Cu filtration system. Irradiation targeted the left buccal pouch mucosa at a rate of 3.2 Gy/minute. Prior to irradiation, animals were anesthetized with an intraperitoneal injection of Ketamine (160 mg/kg) and Xylazine (8 mg/kg). The left buccal pouch was everted, fixed and isolated using a lead shield to protect all other parts of the hamster's body.
The mucositis score, weight change and survival were measured throughout the study as described above. For the evaluation of mucositis, the animals were anesthetized with an inhalation anesthetic, and the left pouch everted. Mucositis was scored visually by comparison to a validated photographic scale, ranging from 0 for normal, to 5 for severe ulceration (clinical scoring). In descriptive terms, this scale is defined as follows: […]

[4] = individual animals, Group 4 (SCV-07 100 μg/kg on days −1, 4, 5 and 10-29), second part of table

## N[C@H](CCC(=O)N[C@@H](Cc1c[nH]c2ccccc12)C(=O)O)C(=O)O [SCV-07, γ-D-glutamyl-L-tryptophan]
[1]; 100 ug/kg on day -1, day 4, day 5 and days 10-29
  average weight gain, % of starting weight during the study: 69.7%
[1]; 100 ug/kg on days -1 to 29
  average weight gain, % of starting weight during the study: 80.7%
[1]; 100 ug/kg on days of radiation only
  average weight gain, % of starting weight during the study: 66.3%
[1]; [4]
  Animal weight, Day 18: 113 and 121 and 88 and 98
  Animal weight, Day 19: 118 and 127 and 92 and 102
  Animal weight, Day 20: 118 and 128 and 92 and 104
  Animal weight, Day 21: 119 and 131 and 94 and 109
  Animal weight, Day 22: 120 and 133 and 95 and 109
  Animal weight, Day 23: 120 and 135 and 97 and 111
  Animal weight, Day 24: 123 and 135 and 99 and 112
  Animal weight, Day 25: 122 and 137 and 98 and 113
  Animal weight, Day 26: 123 and 139 and 100 and 118
  Animal weight, Day 27: 127 and 140 and 102 and 121
  Animal weight, Day 28: 128 and 142 and 103 and 122
  Animal weight, Day 29: 128 and 142 and 102 and 118
  Animal weight, Day 30: 132 and 146 and 105 and 126
  Animal weight, Day 31: 134 and 150 and 108 and 126
  Animal weight, Day 32: 134 and 149 and 109 and 129
  Animal weight, Day 33: 137 and 154 and 112 and 132
  Animal weight, Day 35: 140 and 154 and 113 and 134
[1]; individual animals, Group 4 (SCV-07 100 μg/kg on days −1, 4, 5 and 10-29), second part of table, c18, day inferred as 34
  Animal weight, Day 34: 139 and 153 and 112 and 133
[2]
  Con-A-induced thymocyte and lymphocyte proliferation: increases
[3]; 1 ug/kg from day -1 to 16
  day of peak mean mucositis score: 16
  peak mean mucositis score: 3.8
[3]; 1 ug/kg on days -1 to 16, any day of the study
  improvement in daily mucositis scores relative to saline controls (Mann-Whitney rank sum): did not show any statistically significant improvement on any day
[3]; 10 ug/kg from day -1 to 16
  day of peak mean mucositis score: 16
  peak mean mucositis score: 3.7
[3]; 100 ug/kg from day -1 to 16
  day of peak mean mucositis score: 18
  peak mean mucositis score: 3.4
[3]; 1 ug/kg sc Days -1 to 16
  Days <3: 102
  % Days >=3: 46.9%
  Days >=3: 90
  Chi Sq v control: 0.0105
[3]; 10 ug/kg sc Days -1 to 16
  Days <3: 120
  % Days >=3: 37.5%
  Days >=3: 72
  Chi Sq v control: 3.0860
[3]; 100 ug/kg sc Days -1 to 16
  Days <3: 124
  % Days >=3: 35.4%
  Days >=3: 68
  Chi Sq v control: 4.7420
